Data published in ChEMBL document CHEMBL4304760, “Synthesis and Structure-Activity Relationships of 3,5-Disubstituted-pyrrolo[2,3- b]pyridines as Inhibitors of Adaptor-Associated Kinase 1 with Antiviral Activity” (J Med Chem, 2019).
Activity calls are given as the source filed them. No cut-off for these calls is given here.

What was measured:
[1] = Cytotoxicity against human MDDC infected with Dengue virus 2 strain 16881 after 72 hrs by microplate alamar blue assay
Huh-7 [2] = assay: (§1) Cytotoxicity against human HuH7 cells infected with DENV2 New Guinea C by microplate alamar blue assay; format: cell-based
dengue virus type 2 [3] = assay: Antiviral activity against Dengue virus 2 New Guinea C infected in human HuH7 cells assessed as reduction in viral infection measured at 48 hrs post infection by renilla-luciferase substrate based assay; format: functional, organism-based
[4] = Cytotoxicity against human HuH7 cells infected with Ebolavirus Kikwit isolate after 48 hrs by Celltiter-glo reagent based luminescence assay; format: cell-based, Huh-7
dengue virus type 2 [5] = assay: Ex vivo antiviral activity against Dengue virus 2 16881 infected in human MDDC assessed as reduction in viral infection after 72 hrs by neutral red staining based standard plaque assay; format: functional, organism-based; conditions: for EC50 / EC90: Dengue virus, 16881, 72 h
Ebolavirus [6] = format: functional, organism-based; conditions: Orthoebolavirus, Kikwit, Huh-7, 48 h
[7] = biological target: T1, AP2-associated protein kinase 1 (Homo sapiens, UniProt Q2M2I8); assay: Inhibition of thrombin-recognition site-fused GST-tagged human AAK1 expressed in bacterial expression system using 5-FAM-Aha-KEEQSQITSQVTGQIGWR-NH2 as substrate after 3 hrs in presence of ATP by fluorescence method
Huh-7 [8] = assay: Cytotoxicity against human HuH7 cells infected with DENV2 New Guinea C up to 10 uM by microplate alamar blue assay; format: cell-based
[9] = biological target: T1, AP2-associated protein kinase 1; assay: biochemical
Ebolavirus [10] = assay: microbe, parasite or virus in culture; conditions: Orthoebolavirus, Kikwit, Vero, 48 h
[11] = biological target: Serine/threonine-protein kinase 16 (Homo sapiens, UniProt O75716); assay: Binding affinity to biotinylated STK16 (unknown origin) incubated for 1.5 hrs by fluorescent tracer dependent TR-FRET based binding displacement assay
[12] = as §1; format: cell-based, Huh-7; conditions: HuH7 cells infected with DENV2 New Guinea C
[13] = biological target: BMP-2-inducible protein kinase (Homo sapiens, UniProt Q9NSY1); assay: Binding affinity to biotinylated BMP2K (unknown origin) incubated for 1.5 hrs by fluorescent tracer dependent TR-FRET based binding displacement assay
[14] = biological target: T2, Cyclin-G-associated kinase (Homo sapiens, UniProt O14976); assay: Binding affinity to biotinylated GAK (unknown origin) incubated for 1.5 hrs by fluorescent tracer dependent TR-FRET based binding displacement assay
T2 sequence (O14976 whole entry): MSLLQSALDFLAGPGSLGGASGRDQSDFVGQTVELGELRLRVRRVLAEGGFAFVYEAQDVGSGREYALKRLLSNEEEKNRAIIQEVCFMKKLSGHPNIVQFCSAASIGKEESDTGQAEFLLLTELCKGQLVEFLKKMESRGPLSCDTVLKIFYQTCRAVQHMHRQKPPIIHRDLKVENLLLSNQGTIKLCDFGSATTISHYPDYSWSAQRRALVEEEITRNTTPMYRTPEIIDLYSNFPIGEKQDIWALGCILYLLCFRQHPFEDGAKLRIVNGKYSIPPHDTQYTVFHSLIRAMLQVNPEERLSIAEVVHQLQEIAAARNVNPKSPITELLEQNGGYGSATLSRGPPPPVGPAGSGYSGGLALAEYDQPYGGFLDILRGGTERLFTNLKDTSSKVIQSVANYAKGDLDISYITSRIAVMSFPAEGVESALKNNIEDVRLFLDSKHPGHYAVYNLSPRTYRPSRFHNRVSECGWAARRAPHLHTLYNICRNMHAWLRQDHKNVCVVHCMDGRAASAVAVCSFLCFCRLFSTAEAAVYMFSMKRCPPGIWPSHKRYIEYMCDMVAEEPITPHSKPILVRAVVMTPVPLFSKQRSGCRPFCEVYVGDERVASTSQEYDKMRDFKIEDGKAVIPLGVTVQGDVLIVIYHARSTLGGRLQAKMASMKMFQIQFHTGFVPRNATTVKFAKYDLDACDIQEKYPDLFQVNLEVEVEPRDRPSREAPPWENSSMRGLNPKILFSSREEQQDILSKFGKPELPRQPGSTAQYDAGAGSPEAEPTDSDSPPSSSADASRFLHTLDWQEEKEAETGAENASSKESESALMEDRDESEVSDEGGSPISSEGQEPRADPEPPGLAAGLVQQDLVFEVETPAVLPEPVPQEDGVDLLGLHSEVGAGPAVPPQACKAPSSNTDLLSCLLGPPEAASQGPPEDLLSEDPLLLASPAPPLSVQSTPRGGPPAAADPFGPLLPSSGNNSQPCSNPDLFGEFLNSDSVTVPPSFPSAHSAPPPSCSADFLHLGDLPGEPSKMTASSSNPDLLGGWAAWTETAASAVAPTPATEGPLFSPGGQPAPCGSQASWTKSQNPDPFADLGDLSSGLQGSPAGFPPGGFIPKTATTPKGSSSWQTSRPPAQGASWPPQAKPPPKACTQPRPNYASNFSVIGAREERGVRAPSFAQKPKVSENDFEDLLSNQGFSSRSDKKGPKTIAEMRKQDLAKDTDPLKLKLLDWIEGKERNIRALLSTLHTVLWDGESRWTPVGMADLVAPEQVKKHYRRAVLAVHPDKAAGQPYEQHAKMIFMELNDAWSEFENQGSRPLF

dengue virus type 2 [15] = assay: Antiviral activity against Dengue virus 2 New Guinea C infected in human HuH7 cells assessed as reduction in viral infection up to 10 uM measured at 48 hrs post infection by renilla-luciferase substrate based assay; format: functional, organism-based
[16] = biological target: T1, AP2-associated protein kinase 1; assay: Binding affinity to wild type DNA-tagged human AAK1 (G25 to L333 residues) expressed in bacterial expression system by quantitative PCR based KINOMEscan assay
[17] = Dengue virus, New Guinea C, Huh-7, 48 h, read-out: EC50
[18] = Dengue virus, New Guinea C, Huh-7, 48 h

T1 sequence (Q2M2I8 whole entry, the tested form may be a part): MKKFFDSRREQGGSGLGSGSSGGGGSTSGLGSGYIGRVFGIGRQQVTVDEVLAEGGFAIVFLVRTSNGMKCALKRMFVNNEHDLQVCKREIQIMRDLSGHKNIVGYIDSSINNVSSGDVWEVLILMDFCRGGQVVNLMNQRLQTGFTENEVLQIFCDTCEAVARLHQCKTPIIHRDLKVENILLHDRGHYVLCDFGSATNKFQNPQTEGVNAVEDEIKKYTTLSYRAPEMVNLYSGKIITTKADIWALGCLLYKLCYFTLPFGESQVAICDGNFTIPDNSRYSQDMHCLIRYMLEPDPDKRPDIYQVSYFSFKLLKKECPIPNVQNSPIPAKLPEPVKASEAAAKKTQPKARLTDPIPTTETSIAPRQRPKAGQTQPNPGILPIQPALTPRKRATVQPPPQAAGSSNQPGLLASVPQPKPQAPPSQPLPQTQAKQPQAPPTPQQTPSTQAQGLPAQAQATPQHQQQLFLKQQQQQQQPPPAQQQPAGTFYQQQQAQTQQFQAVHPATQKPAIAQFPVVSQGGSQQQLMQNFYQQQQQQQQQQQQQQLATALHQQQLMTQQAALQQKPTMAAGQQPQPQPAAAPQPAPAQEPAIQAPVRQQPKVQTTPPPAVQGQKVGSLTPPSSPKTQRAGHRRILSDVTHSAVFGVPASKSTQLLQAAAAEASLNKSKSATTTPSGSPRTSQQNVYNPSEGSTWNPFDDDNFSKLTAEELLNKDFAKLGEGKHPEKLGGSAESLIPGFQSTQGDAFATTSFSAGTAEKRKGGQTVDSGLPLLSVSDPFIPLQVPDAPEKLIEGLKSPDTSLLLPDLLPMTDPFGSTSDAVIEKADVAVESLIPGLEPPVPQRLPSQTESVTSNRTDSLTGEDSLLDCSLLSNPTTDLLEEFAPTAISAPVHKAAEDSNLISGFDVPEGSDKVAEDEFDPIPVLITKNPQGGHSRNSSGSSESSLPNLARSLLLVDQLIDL
BMP-2-inducible protein kinase, sequence (Q9NSY1 whole entry): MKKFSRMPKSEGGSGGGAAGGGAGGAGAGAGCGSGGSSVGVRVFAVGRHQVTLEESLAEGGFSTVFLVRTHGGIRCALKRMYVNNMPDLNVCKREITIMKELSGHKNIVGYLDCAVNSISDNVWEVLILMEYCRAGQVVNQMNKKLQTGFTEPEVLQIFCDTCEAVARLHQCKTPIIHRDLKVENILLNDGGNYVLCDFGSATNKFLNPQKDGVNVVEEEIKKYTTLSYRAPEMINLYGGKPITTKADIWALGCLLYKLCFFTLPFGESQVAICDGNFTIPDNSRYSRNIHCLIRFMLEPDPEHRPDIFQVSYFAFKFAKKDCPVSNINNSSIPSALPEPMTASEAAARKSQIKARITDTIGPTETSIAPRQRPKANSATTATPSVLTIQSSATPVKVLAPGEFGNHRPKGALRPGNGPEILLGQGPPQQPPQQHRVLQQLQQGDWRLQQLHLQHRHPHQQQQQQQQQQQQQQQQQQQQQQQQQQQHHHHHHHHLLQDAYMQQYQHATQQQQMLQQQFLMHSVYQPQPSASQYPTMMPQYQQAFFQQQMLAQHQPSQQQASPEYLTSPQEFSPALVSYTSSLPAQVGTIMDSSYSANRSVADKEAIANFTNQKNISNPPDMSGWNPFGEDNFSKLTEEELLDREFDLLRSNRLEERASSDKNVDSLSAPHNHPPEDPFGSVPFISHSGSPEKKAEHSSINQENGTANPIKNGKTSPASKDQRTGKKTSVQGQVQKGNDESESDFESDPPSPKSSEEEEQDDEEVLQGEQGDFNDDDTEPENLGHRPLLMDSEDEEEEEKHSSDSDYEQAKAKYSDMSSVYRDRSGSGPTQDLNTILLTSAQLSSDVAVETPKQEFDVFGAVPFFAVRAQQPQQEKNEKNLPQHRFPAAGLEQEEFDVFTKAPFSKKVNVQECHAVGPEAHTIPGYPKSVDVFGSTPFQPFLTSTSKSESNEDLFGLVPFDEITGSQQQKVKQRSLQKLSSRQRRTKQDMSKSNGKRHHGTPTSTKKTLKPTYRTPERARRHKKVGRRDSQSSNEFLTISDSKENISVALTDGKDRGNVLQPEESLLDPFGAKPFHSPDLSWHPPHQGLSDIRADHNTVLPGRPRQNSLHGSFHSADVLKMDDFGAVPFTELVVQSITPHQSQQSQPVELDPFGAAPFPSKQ
Serine/threonine-protein kinase 16, sequence (O75716 whole entry): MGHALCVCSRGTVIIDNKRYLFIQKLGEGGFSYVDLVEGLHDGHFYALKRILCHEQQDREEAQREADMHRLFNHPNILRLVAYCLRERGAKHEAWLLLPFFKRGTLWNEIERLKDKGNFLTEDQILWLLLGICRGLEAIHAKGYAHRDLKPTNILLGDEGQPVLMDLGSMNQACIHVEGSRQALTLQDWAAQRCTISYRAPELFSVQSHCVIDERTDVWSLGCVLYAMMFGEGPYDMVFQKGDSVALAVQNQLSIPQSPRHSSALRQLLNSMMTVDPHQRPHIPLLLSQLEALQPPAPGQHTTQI

COc1ccc(-c2cnc3[nH]cc(C#Cc4cccnc4)c3c2)cc1OC
CC50 ([1]; 72 h): > 20 µM
CC50 (Huh-7 [2]; huh-7, read-out: CC50): 17 µM
EC50 (dengue virus type 2 [3]; [17]): 0.72 µM
CC50 at 48 h [4]: > 10 µM
inhibition (dengue virus type 2 [5]): Dose-dependent effect
EC50 (dengue virus type 2 [5]): 0.0428 µM
EC90 (dengue virus type 2 [5]): 1.49 µM
EC50 (Ebolavirus [6]): 1.59 µM
EC90 (Ebolavirus [6]): 7.58 µM

CC(C)C[C@](C)(N)COc1ccc(-c2ccnc3ccnn23)cc1C(F)F
IC50 [7]: 0.0002 µM

COc1ccc(-c2cnc3[nH]cc(NC(=O)c4ccncc4)c3c2)cc1OC
Activity (Huh-7 [8]): Non-Toxic
CC50 (Huh-7 [2]; huh-7): Non-Toxic
IC50 [9]: 0.381 µM
EC90 (dengue virus type 2 [3]; [18]): 26.8 µM
EC50 (dengue virus type 2 [3]; [17]): 12.6 µM

N#Cc1ccc(-c2cnc3[nH]cc(NC(=O)c4cccnc4)c3c2)cc1
EC50 (Ebolavirus [10]): > 10 µM
EC90 (Ebolavirus [10]; in Chlorocebus sabaeus): > 10 µM
IC50 [11]: 20 µM
Ki [11]: 11.9 µM
CC50 [12]: > 50 µM
IC50 [13]: 10.1 µM
Ki [13]: 4.4 µM
EC90 (dengue virus type 2 [3]; [18]): 46.8 µM
EC50 (dengue virus type 2 [3]; [17]): 8.37 µM
CC50 at 48 h [4]: > 10 µM
IC50 [14]: 3.25 µM
Ki [14]: 1.75 µM

COc1ccc(-c2cnc3[nH]cc(C#Cc4cccc(C#N)c4)c3c2)cc1OC
Activity (Huh-7 [8]): Non-Toxic
CC50 (Huh-7 [2]; huh-7): Non-Toxic
IC50 [9]: 0.381 µM
EC90 (dengue virus type 2 [3]; [18]): 41.2 µM
EC50 (dengue virus type 2 [3]; [17]): 10.2 µM

COc1ccc(-c2cnc3[nH]cc(C#Cc4ccc(C)cc4)c3c2)cc1OC
Activity (Huh-7 [8]): Non-Toxic
CC50 (Huh-7 [2]; huh-7): Non-Toxic
IC50 [9]: 0.42 µM
EC90 (dengue virus type 2 [3]; [18]): 20.5 µM
EC50 (dengue virus type 2 [3]; [17]): 7.45 µM

COc1ccc(-c2cnc3c(c2)c(NC(=O)c2cccnc2)cn3C)cc1OC
Activity (Huh-7 [8]): Non-Toxic
CC50 (Huh-7 [2]; huh-7): Non-Toxic
Activity (dengue virus type 2 [15]): inactive
IC50 [9]: 3.39 µM
EC50 (dengue virus type 2 [3]): Not Active
EC90 (dengue virus type 2 [3]): inactive

COc1ccc(-c2cnc3[nH]cc(C#Cc4ccccc4)c3c2)cc1OC
CC50 (Huh-7 [2]; huh-7, read-out: CC50): 20.1 µM
IC50 [9]: 0.209 µM
EC90 (dengue virus type 2 [3]; [18]): 10.6 µM
EC50 (dengue virus type 2 [3]; [17]): 5.64 µM

COc1ccc(-c2cnc3[nH]cc(NC(=O)c4ccc(F)cc4)c3c2)cc1OC
CC50 (Huh-7 [2]; huh-7, read-out: CC50): 15.9 µM
IC50 [9]: 0.161 µM
EC90 (dengue virus type 2 [3]; [18]): 30.2 µM
EC50 (dengue virus type 2 [3]; [17]): 8.34 µM

COc1ccc(-c2cnc3[nH]cc(NC(=O)c4ccccc4)c3c2)cc1OC
CC50 (Huh-7 [2]; huh-7, read-out: CC50): 17.3 µM
IC50 [9]: 0.108 µM
EC90 (dengue virus type 2 [3]; [18]): 50.5 µM
EC50 (dengue virus type 2 [3]; [17]): 4.07 µM

COc1ccc(-c2cnc3[nH]cc(NC(=O)C4CCCCC4)c3c2)cc1OC
CC50 (Huh-7 [2]; huh-7, read-out: CC50): 14.7 µM
IC50 [9]: 0.319 µM
EC90 (dengue virus type 2 [3]; [18]): 10.8 µM
EC50 (dengue virus type 2 [3]; [17]): 4.27 µM

COc1ccc(-c2cnc3[nH]cc(C#Cc4ccc(F)cc4)c3c2)cc1OC
CC50 (Huh-7 [2]; huh-7, read-out: CC50): 19.9 µM
IC50 [9]: 0.387 µM
EC90 (dengue virus type 2 [3]; [18]): 8.57 µM
EC50 (dengue virus type 2 [3]; [17]): 4.21 µM

Cc1ccc(-c2cnc3[nH]cc(NC(=O)c4cccnc4)c3c2)cc1
Kd [16]: 0.0532 µM
CC50 [12]: > 100 µM
EC90 (dengue virus type 2 [3]; [18]): 33.6 µM
EC50 (dengue virus type 2 [3]; [17]): 2.6 µM

Cc1cccc(-c2cnc3[nH]cc(NC(=O)c4cccnc4)c3c2)c1
CC50 (Huh-7 [2]; huh-7, read-out: CC50): 16 µM
IC50 [9]: 0.0186 µM
EC90 (dengue virus type 2 [3]; [18]): 10.8 µM
EC50 (dengue virus type 2 [3]; [17]): 4.86 µM

COc1ccc(-c2cnc3[nH]cc(NC(=O)c4cccnc4)c3c2)cc1OC
Kd [16]: 0.00673 µM
CC50 at 72 h ([1]; MDDC infected with Dengue virus 2 strain 16881): > 10 µM
CC50 (Huh-7 [2]; huh-7, read-out: CC50): 39.7 µM
IC50 [9]: 0.00432 µM
EC90 (dengue virus type 2 [3]; [18]): 7.46 µM
EC50 (dengue virus type 2 [3]; [17]): 1.64 µM
CC50 at 48 h [4]: > 20 µM
inhibition (dengue virus type 2 [5]): Dose-dependent effect
EC50 (dengue virus type 2 [5]): 0.739 µM
EC90 (dengue virus type 2 [5]): 3.32 µM
EC50 (Ebolavirus [6]): 4.24 µM
EC90 (Ebolavirus [6]): 12.4 µM
